{"source": "PubChem BioAssay (NCI)", "assay_in_all_cases": "NCI anticancer screen, dose series, 48 h", "key": {"HCT-15 colon": {"system": "HCT-15 colon"}, "NCI-H23 lung": {"system": "NCI-H23 lung"}, "K-562 leukemia": {"system": "K-562 leukemia"}, "IGROV1 ovarian": {"system": "IGROV1 ovarian"}, "MDA-MB-435": {"system": "MDA-MB-435"}, "CCRF-CEM leukemia": {"system": "CCRF-CEM leukemia"}, "MOLT-4 leukemia": {"system": "MOLT-4 leukemia"}, "MALME-3M melanoma": {"system": "MALME-3M melanoma"}, "HT29 colon": {"system": "HT29 colon"}, "MDA-N": {"system": "MDA-N"}, "SW-620 colon": {"system": "SW-620 colon"}, "OVCAR-5 ovarian": {"system": "OVCAR-5 ovarian"}}, "note": "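1) Cells in 96-well plates. 2) Compound, 48 h, 5 concentrations. 3) Linear interpolation between surrounding doses. 4) Unreached endpoint = highest concentration. Definition used: TGI = concentration required for complete inhibition of growth.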", "data": [{"smiles": "Cc1nn(C(=O)c2ccncc2)c2c1C(c1ccccc1)SC(N)=N2", "note": "(stereo not given)", "values": [{"measurement": "TGI", "setting": "HCT-15 colon", "value": "> 10", "unit": "µM"}, {"measurement": "TGI", "setting": "NCI-H23 lung", "value": "> 10", "unit": "µM"}, {"measurement": "TGI", "setting": "K-562 leukemia", "value": "> 10", "unit": "µM"}, {"measurement": "TGI", "setting": "IGROV1 ovarian", "value": "> 10", "unit": "µM"}, {"measurement": "TGI", "setting": "MDA-MB-435", "value": "> 10", "unit": "µM"}, {"measurement": "TGI", "setting": "CCRF-CEM leukemia", "value": "> 10", "unit": "µM"}, {"measurement": "TGI", "setting": "MOLT-4 leukemia", "value": "> 10", "unit": "µM"}, {"measurement": "TGI", "setting": "MALME-3M melanoma", "value": "> 10", "unit": "µM"}, {"measurement": "TGI", "setting": "HT29 colon", "value": "> 10", "unit": "µM"}, {"measurement": "TGI", "setting": "MDA-N", "value": "> 10", "unit": "µM"}, {"measurement": "TGI", "setting": "SW-620 colon", "value": "> 10", "unit": "µM"}, {"measurement": "TGI", "setting": "OVCAR-5 ovarian", "value": "> 10", "unit": "µM"}]}, {"smiles": "Cc1ccc(N=N/C(=N/NC(=O)c2cc(Cl)ccc2C(=O)c2ccccc2)c2ccc(N(CCC#N)CCC#N)cc2C)cc1", "values": [{"measurement": "TGI", "setting": "HCT-15 colon", "value": 57.8, "unit": "µM"}, {"measurement": "TGI", "setting": "NCI-H23 lung", "value": "> 100", "unit": "µM"}, {"measurement": "TGI", "setting": "K-562 leukemia", "value": "> 100", "unit": "µM"}, {"measurement": "TGI", "setting": "IGROV1 ovarian", "value": 41.3, "unit": "µM"}, {"measurement": "TGI", "setting": "MDA-MB-435", "value": 82, "unit": "µM"}, {"measurement": "TGI", "setting": "CCRF-CEM leukemia", "value": 13.1, "unit": "µM"}, {"measurement": "TGI", "setting": "MOLT-4 leukemia", "value": 26.2, "unit": "µM"}, {"measurement": "TGI", "setting": "MALME-3M melanoma", "value": 32.4, "unit": "µM"}, {"measurement": "TGI", "setting": "HT29 colon", "value": 39.9, "unit": "µM"}, {"measurement": "TGI", "setting": "MDA-N", "value": "> 100", "unit": "µM"}, {"measurement": "TGI", "setting": "SW-620 colon", "value": "> 100", "unit": "µM"}, {"measurement": "TGI", "setting": "OVCAR-5 ovarian", "value": "> 100", "unit": "µM"}]}, {"smiles": "Cc1cc(N=Nc2c(O)ccc3ccccc23)ccc1N=Nc1cccc([N+](C)(C)C)c1", "values": [{"measurement": "TGI", "setting": "HCT-15 colon", "value": "> 84.4", "unit": "µM"}, {"measurement": "TGI", "setting": "NCI-H23 lung", "value": 52, "unit": "µM"}, {"measurement": "TGI", "setting": "K-562 leukemia", "value": "> 90.7", "unit": "µM"}, {"measurement": "TGI", "setting": "IGROV1 ovarian", "value": "> 22.2", "unit": "µM"}, {"measurement": "TGI", "setting": "MDA-MB-435", "value": "> 74.5", "unit": "µM"}, {"measurement": "TGI", "setting": "CCRF-CEM leukemia", "value": "> 34.3", "unit": "µM"}, {"measurement": "TGI", "setting": "MOLT-4 leukemia", "value": "> 100", "unit": "µM"}, {"measurement": "TGI", "setting": "MALME-3M melanoma", "value": 35.2, "unit": "µM"}, {"measurement": "TGI", "setting": "HT29 colon", "value": 25.1, "unit": "µM"}, {"measurement": "TGI", "setting": "MDA-N", "value": "> 100", "unit": "µM"}, {"measurement": "TGI", "setting": "SW-620 colon", "value": 46.9, "unit": "µM"}, {"measurement": "TGI", "setting": "OVCAR-5 ovarian", "value": 60.8, "unit": "µM"}]}, {"smiles": "O=C(Nc1nn(C(=O)c2ccc(Cl)cc2)c(=O)s1)c1ccc(Cl)cc1", "values": [{"measurement": "TGI", "setting": "HCT-15 colon", "value": "> 100", "unit": "µM"}, {"measurement": "TGI", "setting": "NCI-H23 lung", "value": "> 100", "unit": "µM"}, {"measurement": "TGI", "setting": "K-562 leukemia", "value": "> 100", "unit": "µM"}, {"measurement": "TGI", "setting": "IGROV1 ovarian", "value": "> 100", "unit": "µM"}, {"measurement": "TGI", "setting": "MDA-MB-435", "value": "> 100", "unit": "µM"}, {"measurement": "TGI", "setting": "CCRF-CEM leukemia", "value": "> 100", "unit": "µM"}, {"measurement": "TGI", "setting": "MOLT-4 leukemia", "value": "> 100", "unit": "µM"}, {"measurement": "TGI", "setting": "MALME-3M melanoma", "value": "> 100", "unit": "µM"}, {"measurement": "TGI", "setting": "HT29 colon", "value": "> 100", "unit": "µM"}, {"measurement": "TGI", "setting": "MDA-N", "value": "> 100", "unit": "µM"}, {"measurement": "TGI", "setting": "SW-620 colon", "value": "> 100", "unit": "µM"}, {"measurement": "TGI", "setting": "OVCAR-5 ovarian", "value": "> 100", "unit": "µM"}]}, {"smiles": "O=C(Nc1c(C(F)(F)F)cc(-c2ccccc2)[nH]c1=O)N1CCOCC1", "values": [{"measurement": "TGI", "setting": "HCT-15 colon", "value": "> 100", "unit": "µM"}, {"measurement": "TGI", "setting": "NCI-H23 lung", "value": "> 100", "unit": "µM"}, {"measurement": "TGI", "setting": "K-562 leukemia", "value": "> 100", "unit": "µM"}, {"measurement": "TGI", "setting": "IGROV1 ovarian", "value": "> 100", "unit": "µM"}, {"measurement": "TGI", "setting": "MDA-MB-435", "value": "> 100", "unit": "µM"}, {"measurement": "TGI", "setting": "CCRF-CEM leukemia", "value": "> 100", "unit": "µM"}, {"measurement": "TGI", "setting": "MOLT-4 leukemia", "value": "> 100", "unit": "µM"}, {"measurement": "TGI", "setting": "MALME-3M melanoma", "value": "> 100", "unit": "µM"}, {"measurement": "TGI", "setting": "HT29 colon", "value": "> 100", "unit": "µM"}, {"measurement": "TGI", "setting": "MDA-N", "value": "> 100", "unit": "µM"}, {"measurement": "TGI", "setting": "SW-620 colon", "value": "> 100", "unit": "µM"}, {"measurement": "TGI", "setting": "OVCAR-5 ovarian", "value": "> 100", "unit": "µM"}]}]}
